For assay [1], the target named is Protein tyrosine phosphatase type IVA 3 (Mus musculus) (UniProt Q9D658). The experiment in a line: Inhibition of mouse His-tagged wild type PRL3 at 0.6 uM using DiFMUP as substrate preincubated with enzyme for 10 mins prior to substrate addition by fluorescence based assay relative to control.
Another assay is filed under the species Mus musculus. The experiment in a line: Inhibition of mouse His-tagged PRL3 C49A mutant at 0.6 uM using DiFMUP as substrate preincubated with enzyme for 10 mins prior to substrate addition by fluorescence based assay relative to control.
Assay [2] addresses T1, Tyrosine-protein phosphatase non-receptor type 1 (Homo sapiens) (UniProt P18031).
T1 sequence (whole entry): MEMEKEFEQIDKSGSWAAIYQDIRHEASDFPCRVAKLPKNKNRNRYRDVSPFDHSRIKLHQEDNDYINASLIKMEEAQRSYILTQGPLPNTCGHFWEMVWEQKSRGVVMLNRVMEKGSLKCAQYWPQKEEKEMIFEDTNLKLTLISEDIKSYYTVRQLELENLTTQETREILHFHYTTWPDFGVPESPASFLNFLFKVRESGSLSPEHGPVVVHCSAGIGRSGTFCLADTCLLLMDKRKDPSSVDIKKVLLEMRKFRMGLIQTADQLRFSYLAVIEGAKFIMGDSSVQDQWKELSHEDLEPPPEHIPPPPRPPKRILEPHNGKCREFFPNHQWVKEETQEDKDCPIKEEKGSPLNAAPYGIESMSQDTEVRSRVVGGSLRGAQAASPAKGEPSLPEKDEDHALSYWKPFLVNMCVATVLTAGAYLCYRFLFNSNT
The experiment in a line: Inhibition of human PTP1B at 25 nM using DiFMUP as substrate preincubated with enzyme prior to substrate addition by fluorescence based assay. Conditions: TDE = time-dependent effect.

A short description of assay [3]: Induction of glutathione oxidation at 1 mM incubated for 2 hrs in 80% d6-DMSO and 20% D2O by 15N-1H NMR spectroscopy relative to control.
Assay [4] can be described thus: Induction of TCEP oxidation assessed as increase in rate of reduction of resazurin at 5 uM after 3 to 5 secs by resazurin based assay. In general terms: The colour change of resazurin is a common sign of viable cells or microbes.
The nature of assay [5]: Induction of TCEP oxidation assessed as increase in rate of reduction of resazurin at 5 uM incubated up to 2 hrs by resazurin based assay.
The nature of assay [6]: Induction of TCEP oxidation at 1 mM in 80% d6-acetone and 20% d6-DMSO incubated for 2 hrs by 15N-1H NMR spectroscopy relative to control.
The target of assay [7] is T2, Receptor-type tyrosine-protein phosphatase C (Homo sapiens) (UniProt P08575).
T2 sequence (whole entry): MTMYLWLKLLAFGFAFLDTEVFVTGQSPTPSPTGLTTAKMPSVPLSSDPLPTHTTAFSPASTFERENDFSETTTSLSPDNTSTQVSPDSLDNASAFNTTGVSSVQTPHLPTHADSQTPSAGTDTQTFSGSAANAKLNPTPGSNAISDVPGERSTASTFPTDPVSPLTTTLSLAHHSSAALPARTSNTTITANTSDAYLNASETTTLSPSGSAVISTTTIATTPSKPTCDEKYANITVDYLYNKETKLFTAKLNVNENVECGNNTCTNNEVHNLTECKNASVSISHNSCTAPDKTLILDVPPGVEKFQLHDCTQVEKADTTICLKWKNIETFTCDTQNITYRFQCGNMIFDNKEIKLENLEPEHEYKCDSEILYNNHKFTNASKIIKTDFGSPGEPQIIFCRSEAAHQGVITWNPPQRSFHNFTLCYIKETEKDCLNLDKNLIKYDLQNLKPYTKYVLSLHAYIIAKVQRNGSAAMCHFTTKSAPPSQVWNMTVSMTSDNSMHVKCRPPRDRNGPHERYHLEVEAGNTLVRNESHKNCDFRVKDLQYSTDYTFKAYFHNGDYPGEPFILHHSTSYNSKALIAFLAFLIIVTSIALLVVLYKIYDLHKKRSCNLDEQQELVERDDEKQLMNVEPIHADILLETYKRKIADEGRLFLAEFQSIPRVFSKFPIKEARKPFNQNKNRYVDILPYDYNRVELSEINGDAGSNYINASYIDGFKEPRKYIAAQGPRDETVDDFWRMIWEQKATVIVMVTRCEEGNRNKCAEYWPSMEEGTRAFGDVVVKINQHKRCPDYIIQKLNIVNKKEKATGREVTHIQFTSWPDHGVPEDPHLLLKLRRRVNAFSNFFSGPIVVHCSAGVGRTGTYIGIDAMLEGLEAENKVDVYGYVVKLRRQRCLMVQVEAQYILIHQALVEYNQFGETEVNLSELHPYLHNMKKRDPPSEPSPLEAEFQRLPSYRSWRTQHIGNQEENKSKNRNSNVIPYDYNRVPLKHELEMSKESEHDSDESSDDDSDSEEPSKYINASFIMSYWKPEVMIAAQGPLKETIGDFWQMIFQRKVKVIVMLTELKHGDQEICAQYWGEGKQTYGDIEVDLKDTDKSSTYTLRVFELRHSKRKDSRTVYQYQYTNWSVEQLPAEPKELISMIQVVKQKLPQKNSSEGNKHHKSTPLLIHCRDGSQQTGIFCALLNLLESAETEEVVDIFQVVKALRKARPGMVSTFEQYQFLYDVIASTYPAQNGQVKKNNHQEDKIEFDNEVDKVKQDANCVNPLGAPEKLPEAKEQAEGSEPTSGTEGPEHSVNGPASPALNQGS
The experiment in a line: Inhibition of C-terminal 6His-tagged PTPRC (627-1228 residues) (unknown origin) expressed in Escherichia coli BL21 (DE3) at 2 uM using DiFMUP as substrate preincubated with enzyme and catalase for 2.5 hrs prior to substrate addition measured for 1 min by fluorescence based assay.

For assay [8], the target named is T3, Receptor-type tyrosine-protein phosphatase O (Homo sapiens) (UniProt Q16827).
T3 sequence (whole entry): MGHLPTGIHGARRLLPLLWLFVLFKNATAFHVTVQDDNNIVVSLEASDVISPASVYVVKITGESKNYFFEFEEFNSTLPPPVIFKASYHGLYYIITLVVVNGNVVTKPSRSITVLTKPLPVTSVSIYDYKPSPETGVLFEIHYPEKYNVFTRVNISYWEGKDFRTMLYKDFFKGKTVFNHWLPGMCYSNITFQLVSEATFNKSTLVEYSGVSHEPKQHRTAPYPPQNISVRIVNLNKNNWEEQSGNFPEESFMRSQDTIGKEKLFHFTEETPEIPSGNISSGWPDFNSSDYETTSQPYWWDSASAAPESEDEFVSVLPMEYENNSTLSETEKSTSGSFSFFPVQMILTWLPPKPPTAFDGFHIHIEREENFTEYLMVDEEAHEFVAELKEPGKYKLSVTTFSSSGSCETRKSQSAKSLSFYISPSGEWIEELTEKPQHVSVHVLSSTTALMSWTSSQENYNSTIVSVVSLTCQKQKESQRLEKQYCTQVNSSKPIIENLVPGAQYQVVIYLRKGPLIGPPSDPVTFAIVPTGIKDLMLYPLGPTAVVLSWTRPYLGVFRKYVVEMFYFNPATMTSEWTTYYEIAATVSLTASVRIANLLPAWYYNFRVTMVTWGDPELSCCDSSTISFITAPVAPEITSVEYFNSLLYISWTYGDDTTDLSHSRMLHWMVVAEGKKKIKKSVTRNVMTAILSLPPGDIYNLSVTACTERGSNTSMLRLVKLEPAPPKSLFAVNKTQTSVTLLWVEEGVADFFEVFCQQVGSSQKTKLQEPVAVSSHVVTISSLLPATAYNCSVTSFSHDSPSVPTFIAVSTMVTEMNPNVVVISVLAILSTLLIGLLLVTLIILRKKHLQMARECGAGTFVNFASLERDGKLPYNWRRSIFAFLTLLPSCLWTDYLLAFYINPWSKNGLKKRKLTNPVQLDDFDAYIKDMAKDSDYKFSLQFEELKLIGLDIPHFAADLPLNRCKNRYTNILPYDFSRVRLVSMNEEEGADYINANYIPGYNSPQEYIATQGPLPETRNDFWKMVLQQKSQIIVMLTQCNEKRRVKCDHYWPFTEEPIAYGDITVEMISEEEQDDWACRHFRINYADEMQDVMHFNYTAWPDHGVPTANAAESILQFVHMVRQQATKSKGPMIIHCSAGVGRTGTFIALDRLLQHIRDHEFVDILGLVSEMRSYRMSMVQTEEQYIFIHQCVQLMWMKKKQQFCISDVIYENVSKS
The experiment in a line: Inhibition of recombinant human N-terminal His-tagged PTPRO expressed in bacterial expression system assessed as rate of product DiFMU formed at 2 uM using DiFMUP as substrate preincubated with enzyme for 2.5 hrs prior to substrate addition measured for 1 min by fluorescence based assay (reference value: 209.7 nM/sec).

The species entered for a further assay is Homo sapiens. The experiment in a line: Inhibition of recombinant human C-terminal 6His-tagged PTPN22 G126V/V147G double mutant expressed in bacterial expression system assessed as rate of product DiFMU formed at 2 uM using DiFMUP as substrate preincubated with enzyme for 2.5 hrs followed by substrate addition measured for 1 min by fluorescence based assay (reference value: 11.9 nM/sec).

For assay [9], the target named is T3, Receptor-type tyrosine-protein phosphatase O (Homo sapiens). The experiment in a line: Inhibition of recombinant human N-terminal His-tagged PTPRO expressed in bacterial expression system assessed as enzyme residual activity at 2 uM using DiFMUP as substrate preincubated with enzyme for 2.5 hrs prior to substrate addition measured for 1 min by fluorescence based assay.

SMILES strings stand for the structures. Active and inactive are the calls of the source. No cut-off for these calls is given here.

As a reminder, the inhibition is the change of the read-out against control, counted positive when it falls.

Protein tyrosine phosphatase type IVA 3 (Mus musculus), sequence (Q9D658 whole entry): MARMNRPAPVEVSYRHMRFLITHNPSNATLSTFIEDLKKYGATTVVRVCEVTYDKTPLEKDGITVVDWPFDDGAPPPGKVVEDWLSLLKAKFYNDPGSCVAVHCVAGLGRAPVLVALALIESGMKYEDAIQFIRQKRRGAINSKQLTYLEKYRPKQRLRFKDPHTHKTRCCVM

Regarding `Nc1c[nH]c(=O)c2cc(-c3ccccc3)sc12`, the inhibition in assay [1] was 55%; in the assay listed under Mus musculus, 10%; in assay [2], “Tde”. The Activity in assay [3] is 70%. Besides, the result in [4] and in assay [5] was Active. The molecule further yielded a fold change (FC) in assay [6] of 5.

In the case of `N=C1C(=O)NC(=O)c2cc(-c3ccccc3)sc21`, the inhibition entry in assay [2] was “Tde”. Besides, in assay [7], the inhibition entry was “inactive”. The Activity in assay [8] was 15.3 nM/s; in the assay listed under Homo sapiens, 0.3 nM/s; in assay [9], 7.3%. The result in assay [5] was Active. In addition, in assay [6], the fold change (FC) was found to be 20.
